According to ChEMBL document CHEMBL1201862, “PubChem BioAssay data set” (2004):
The source made the active and inactive calls. Square brackets hold non-standard residues; d marks the D form. Peptide text beside a SMILES is read from it. * marks the point of attachment. ξ: configuration not given here. Cbz = O=C(OCc1ccccc1)*; OBn = c1ccc(CO*)cc1; ξP = O=C(O)C1CCCN1

Legend:
Cytochrome P450 2D6 = Cytochrome P450 2D6 (Homo sapiens, UniProt P10635);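 note: CYP2D6 member of a cytochrome P450 panel assay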
H4 = experiment: Luminescence Cell-Based Dose Response HTS to Identify Activators of 5'UTR Stem-Loop Driven Prion Protein mRNA Translation in H4 Neuroglioblastoma Cells. [Related pubchem assays: 1829 (Project Summary), 1814 (Primary HTS)]; type: functional; details: Homo sapiens
[1] = Luminescence Cell-Based Dose Confirmation HTS to Identify Activators of 5'UTR Stem-Loop Driven Alpha-Synuclein mRNA Translation in H4 Neuroglioblastoma Cells. [Related pubchem assays: 1829 (Project Summary), 1814 (Primary HTS)]; type: functional
[2] = Luminescence Cell-Based Dose Response HTS to Identify Activators of Luciferase Translation or Activity in H4 […] Cells. [Related pubchem assays: 1829 (Project Summary), 1814 (Primary HTS)]; type: functional
Cytochrome P450 2C19 = Cytochrome P450 2C19 (Homo sapiens, UniProt P33261); experiment: Cytochrome panel assay with activity outcomes. Panel member name: p450-cyp2c19 Compounds with AC50 equal or less than 10 uM are considered active; type: functional
[3] = fluconazole-exposed Candida albicans growth modulators – fluorescence, retest, confirmation (AID 2467); type: functional, cell-based
[4] = NIH-3T3 fibroblast cytotoxicity, dose response, cytotoxicity control, cell-based, fluorescence, Alamar Blue, secondary assay (AID 2327); type: functional;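 note: NIH-3T3 mouse fibroblasts cultured with fluconazole at 8 µg/mL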
Cytochrome P450 1A2 = target: T1, Cytochrome P450 1A2 (Homo sapiens, UniProt P05177);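 note: PubChem cytochrome P450 panel assay, CYP1A2 panel member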
T1 sequence (P05177 whole entry): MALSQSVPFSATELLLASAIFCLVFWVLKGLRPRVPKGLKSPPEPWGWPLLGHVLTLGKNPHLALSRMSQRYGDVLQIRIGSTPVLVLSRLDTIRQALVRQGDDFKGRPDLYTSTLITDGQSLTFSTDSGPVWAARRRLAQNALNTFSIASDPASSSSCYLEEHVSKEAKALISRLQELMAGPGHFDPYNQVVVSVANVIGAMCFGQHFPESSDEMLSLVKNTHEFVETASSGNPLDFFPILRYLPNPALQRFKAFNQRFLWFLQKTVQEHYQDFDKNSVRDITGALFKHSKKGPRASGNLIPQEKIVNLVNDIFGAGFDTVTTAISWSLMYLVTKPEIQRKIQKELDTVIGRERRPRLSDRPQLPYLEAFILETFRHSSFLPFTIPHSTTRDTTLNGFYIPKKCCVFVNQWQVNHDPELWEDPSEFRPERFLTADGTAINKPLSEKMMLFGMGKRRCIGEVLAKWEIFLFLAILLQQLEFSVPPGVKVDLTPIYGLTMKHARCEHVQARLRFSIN

Cytochrome P450 3A4 = Cytochrome P450 3A4 (Homo sapiens, UniProt P08684);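 note: CYP3A4 tested as one member of a cytochrome P450 panel screen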
[5] = target: T2, Corticotropin-releasing factor receptor 2/Corticotropin-releasing factor-binding protein (Homo sapiens, UniProt P24387+Q13324); experiment: activators of CRF receptor 2 with binding protein – uHTS hits, confirmation (AID 602473); type: functional; details: read-out: EC50_Mean
T2 sequence (Q13324 whole entry): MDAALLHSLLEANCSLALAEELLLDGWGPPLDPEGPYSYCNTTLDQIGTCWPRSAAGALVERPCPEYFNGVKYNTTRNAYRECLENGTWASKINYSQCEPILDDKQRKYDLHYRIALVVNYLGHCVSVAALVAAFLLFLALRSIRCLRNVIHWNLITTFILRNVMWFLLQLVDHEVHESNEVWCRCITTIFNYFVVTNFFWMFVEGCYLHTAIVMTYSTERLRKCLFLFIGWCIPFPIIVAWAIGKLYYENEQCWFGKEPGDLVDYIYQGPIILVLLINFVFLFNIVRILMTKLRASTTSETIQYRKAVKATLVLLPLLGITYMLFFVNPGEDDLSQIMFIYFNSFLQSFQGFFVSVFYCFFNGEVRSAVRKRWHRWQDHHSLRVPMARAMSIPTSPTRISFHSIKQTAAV
T2 sequence (P24387 whole entry): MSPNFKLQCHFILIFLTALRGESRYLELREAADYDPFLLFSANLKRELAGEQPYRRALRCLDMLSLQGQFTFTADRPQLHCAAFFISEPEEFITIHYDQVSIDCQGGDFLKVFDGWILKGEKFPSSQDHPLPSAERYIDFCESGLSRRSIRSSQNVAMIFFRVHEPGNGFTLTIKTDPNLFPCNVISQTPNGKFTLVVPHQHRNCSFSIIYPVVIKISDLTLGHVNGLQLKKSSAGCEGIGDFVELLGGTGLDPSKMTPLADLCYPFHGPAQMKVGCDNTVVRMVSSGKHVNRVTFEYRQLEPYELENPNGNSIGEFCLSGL

[6] = target: T2, Corticotropin-releasing factor receptor 2/Corticotropin-releasing factor-binding protein; experiment: Dose Response confirmation of uHTS hits for small molecule antagonists of the CRF-binding protein and CRF-R2 receptor complex.; type: functional; details: read-out: IC50_Mean
[7] = test system: Streptococcus sp. 'group A'; experiment: Streptococcus pyogenes SK(-)GAS viability under kanamycin – luminescence, BacTiterGlo, confirmation, counter-screen for streptokinase expression inhibitor project, dose response (AID 1900); type: functional, organism-based
Streptococcus = experiment: GAS UMAA2166 growth inhibition – luminescence, BacTiterGlo, counter-screen for streptokinase expression inhibitor project, dose response (AID 1915); type: functional, organism-based;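 note: potency for reduction of bacterial viability or growth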
Cytochrome P450 2C9 = Cytochrome P450 2C9 (Homo sapiens, UniProt P11712)
Sequence of Cytochrome P450 2C9 (P11712 whole entry): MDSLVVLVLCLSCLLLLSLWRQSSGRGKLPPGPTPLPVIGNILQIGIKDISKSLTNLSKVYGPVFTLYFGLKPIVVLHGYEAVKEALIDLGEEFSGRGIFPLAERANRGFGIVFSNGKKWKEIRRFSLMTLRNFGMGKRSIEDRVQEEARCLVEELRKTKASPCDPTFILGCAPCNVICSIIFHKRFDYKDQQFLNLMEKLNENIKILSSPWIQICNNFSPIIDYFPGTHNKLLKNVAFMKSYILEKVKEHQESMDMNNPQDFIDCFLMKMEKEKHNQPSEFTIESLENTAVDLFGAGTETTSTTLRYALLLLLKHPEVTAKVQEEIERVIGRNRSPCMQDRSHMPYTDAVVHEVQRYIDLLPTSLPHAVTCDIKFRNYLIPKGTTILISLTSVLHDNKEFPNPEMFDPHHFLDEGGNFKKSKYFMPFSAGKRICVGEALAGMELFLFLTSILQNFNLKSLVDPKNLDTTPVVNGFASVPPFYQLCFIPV

Sequence of Cytochrome P450 3A4 (P08684 whole entry): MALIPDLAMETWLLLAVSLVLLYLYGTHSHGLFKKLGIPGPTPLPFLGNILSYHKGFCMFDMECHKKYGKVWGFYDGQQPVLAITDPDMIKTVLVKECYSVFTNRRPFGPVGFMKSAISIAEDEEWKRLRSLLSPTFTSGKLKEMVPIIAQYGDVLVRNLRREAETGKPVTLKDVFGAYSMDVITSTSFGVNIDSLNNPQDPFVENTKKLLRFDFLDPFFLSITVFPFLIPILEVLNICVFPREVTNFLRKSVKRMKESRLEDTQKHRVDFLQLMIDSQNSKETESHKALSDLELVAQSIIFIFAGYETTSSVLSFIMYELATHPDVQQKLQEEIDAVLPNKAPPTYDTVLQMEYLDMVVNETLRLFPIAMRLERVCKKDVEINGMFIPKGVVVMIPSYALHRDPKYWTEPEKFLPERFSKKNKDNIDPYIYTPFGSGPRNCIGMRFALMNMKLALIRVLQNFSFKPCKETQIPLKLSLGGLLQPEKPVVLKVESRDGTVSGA
Sequence of Cytochrome P450 2D6 (P10635 whole entry): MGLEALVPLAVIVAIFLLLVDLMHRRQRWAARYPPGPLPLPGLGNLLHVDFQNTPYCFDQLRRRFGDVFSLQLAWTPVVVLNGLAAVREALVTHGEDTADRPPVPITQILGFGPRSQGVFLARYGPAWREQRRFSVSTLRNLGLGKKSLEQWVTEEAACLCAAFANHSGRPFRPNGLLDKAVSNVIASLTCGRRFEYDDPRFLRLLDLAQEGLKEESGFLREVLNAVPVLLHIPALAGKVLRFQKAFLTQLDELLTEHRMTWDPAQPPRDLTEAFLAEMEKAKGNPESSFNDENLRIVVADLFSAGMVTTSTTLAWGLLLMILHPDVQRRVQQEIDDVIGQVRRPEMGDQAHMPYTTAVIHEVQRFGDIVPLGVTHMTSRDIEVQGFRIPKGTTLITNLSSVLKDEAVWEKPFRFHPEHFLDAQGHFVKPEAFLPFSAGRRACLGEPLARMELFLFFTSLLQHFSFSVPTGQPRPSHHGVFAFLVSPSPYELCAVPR
Sequence of Cytochrome P450 2C19 (P33261 whole entry): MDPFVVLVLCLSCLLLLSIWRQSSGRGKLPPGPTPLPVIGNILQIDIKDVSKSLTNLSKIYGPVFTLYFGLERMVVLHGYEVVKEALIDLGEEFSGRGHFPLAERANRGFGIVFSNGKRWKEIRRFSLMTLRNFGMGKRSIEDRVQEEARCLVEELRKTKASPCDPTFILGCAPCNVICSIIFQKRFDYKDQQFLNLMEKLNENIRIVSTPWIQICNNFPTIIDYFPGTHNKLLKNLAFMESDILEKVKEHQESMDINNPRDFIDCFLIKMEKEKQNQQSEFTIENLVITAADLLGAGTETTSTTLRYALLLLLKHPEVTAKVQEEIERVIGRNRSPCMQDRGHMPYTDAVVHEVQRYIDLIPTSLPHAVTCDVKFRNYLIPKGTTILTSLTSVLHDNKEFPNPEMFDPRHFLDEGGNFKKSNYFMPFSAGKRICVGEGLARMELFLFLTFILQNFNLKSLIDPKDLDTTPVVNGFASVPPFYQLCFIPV

Cc1noc(C)c1C(=O)N1CCC2(CC1)CCN(C(c1ccccc1)c1ccccc1)CC2
AC50 (Cytochrome P450 2D6): 25.1 µM (inconclusive)

COc1ccc(C2C(C#N)=C(N)Nc3nc4ccccc4n32)cc1 (stereo not given)
EC50 (H4): 32.9 µM (active) | EC50 [1]: 12.1 µM (active) | EC50 [2]: 16.7 µM (active)

CCN1CCN(c2nc3c(c(=O)[nH]c(=O)n3C)n2CCCSc2ncccn2)CC1
AC50 (Cytochrome P450 2C19): inconclusive

Clc1ccc2c(N[C@H]3CC[C@H](N4CCCCC4)CC3)ccnc2c1
AC50 (Cytochrome P450 2C19): inconclusive | AC50 (Cytochrome P450 2D6): 3.98 µM (inconclusive)

O=C(CSCc1cccc(CSCC(=O)Nc2ccccc2)n1)Nc1ccccc1
EC50 [3]: > 38 µM (not active) | EC50 [4]: > 150 µM (inactive)

COC(=O)[C@@]1(Cc2ccccc2)[C@H]2c3cc(C(=O)N4CCCC4)n(Cc4ccc(C)o4)c3C[C@H]2CN1C(=O)c1ccccc1
AC50 (Cytochrome P450 1A2): 12.6 µM (inconclusive) | AC50 (Cytochrome P450 2D6): 39.8 µM (inconclusive)

Cc1cc(O)c(C(C)C)cc1CN1CCCCC1
AC50 (Cytochrome P450 1A2): 1 µM (inconclusive) | AC50 (Cytochrome P450 2D6): 3.98 µM (inconclusive)

Cc1nc(-c2cccc(NC(=O)c3cc4cc(Br)ccc4oc3=O)c2)cs1
AC50 (Cytochrome P450 2C19; read-out: AC50): 20 µM (inconclusive) | AC50 (Cytochrome P450 3A4): 10 µM (inconclusive) | AC50 (Cytochrome P450 1A2): 8.91 µM (inconclusive)

CC(C)(CNC(=O)c1ccc(Br)o1)CNC(=O)c1ccc(Br)o1
EC50 [5]: > 53 µM (inactive) | IC50 [6]: > 47.1 µM (inactive)

COCCNC(=O)CCn1c(=O)oc2ccccc21
AC50 (Cytochrome P450 2C19; read-out: AC50): 1.41 µM (inconclusive)

Cc1nc2nc(NC(=O)c3ccco3)nn2c(C)c1Cl
EC50 (H4): 15.5 µM (active) | EC50 [1]: 0.817 µM (active) | EC50 [2]: 14.3 µM (active)

CCOc1ccccc1NC(=O)CNC(=O)Cc1ccccc1
EC50 [5]: > 53 µM (inactive) | IC50 [6]: > 47.1 µM (inactive)

Cc1cc(S(=O)(=O)NC2CCCCC2)ccc1OCC(=O)NCC1CCCO1 (stereo not given)
EC50 [5]: > 53 µM (inactive) | IC50 [6]: > 47.1 µM (inactive)

O=C(Nc1ccc2c(c1)OCCO2)c1cc2sccc2n1Cc1ccc(F)cc1
EC50 (H4): > 120 µM (not active) | EC50 [1]: 0.94 µM (active) | EC50 [2]: 3.85 µM (active)

COc1ccc(/C=C/c2nc(O)cc(-c3ccccc3)n2)cc1
EC50 [5]: > 53 µM (inactive) | IC50 [6]: > 47.1 µM (inactive)

NS(=O)(=O)c1cccc(NC(S)=NCc2ccc3c(c2)OCO3)c1
EC50 [3]: > 38 µM (not active) | EC50 [4]: > 160 µM (inactive)

O=C(Nc1ccccc1)N1CCCC2(CCN(C(=O)Oc3ccccc3)CC2)C1
AC50 (Cytochrome P450 1A2): 25.1 µM (inconclusive) | AC50 (Cytochrome P450 2D6): 20 µM (inconclusive)

CC(C)(C)c1ccc(OCC(=O)NNC(=S)NC(=O)c2ccco2)c(Br)c1
EC50 [7]: < 0.06 µM (active) | EC50 (Streptococcus): 0.1 µM (active)

CCOC(=O)N1CCN(S(=O)(=O)c2ccc(C)c(C)c2C)CC1
EC50 [5]: > 53 µM (inactive) | IC50 [6]: > 47.1 µM (inactive)

Cc1ccc(NC(=O)NNC(=O)c2cc3ccccc3cc2O)c(C)c1
EC50 [4]: > 150 µM (inconclusive)

COc1cc(SC)ccc1C(=O)OCC(=O)NC1CC1
EC50 [3]: > 38 µM (not active) | EC50 [4]: > 150 µM (inactive)

COc1ccc(Cc2c(N)nc(N)nc2N)cc1
AC50 (Cytochrome P450 2D6): 17.8 µM (inconclusive)

O=C(Nc1nnc(S(=O)(=O)N2CCOCC2)s1)c1cccc(F)c1
EC50 (H4): 14.6 µM (active) | EC50 [1]: 17.8 µM (active) | EC50 [2]: 9.48 µM (active)

COc1cc2c(cc1NC(=O)c1ccc3c(c1)OCO3)oc1ccccc12
EC50 (H4): 85.3 µM (active) | EC50 [1]: 5.37 µM (active) | EC50 [2]: 43.1 µM (active)

O=C(Nc1ccccc1)C(Cc1ccccc1)NC(=O)C12CC3CC(CC(C3)C1)C2 (stereo not given)
AC50 (Cytochrome P450 2D6): 0.00794 µM (inconclusive)

O=C1[C@H]2[C@H]3[C@H](O)[C@H](O)C/C(=N/OCc4ccccc4)[C@@H]3CC[C@@H]2C(=O)N1Cc1ccc2c(c1)OCO2
AC50 (Cytochrome P450 2C19; read-out: AC50): 3.98 µM (inconclusive)

CC1(O)c2ccccc2C(=O)N1CCc1ccccc1F (stereo not given)
AC50 (Cytochrome P450 1A2): 20 µM (inconclusive) | EC50 [5]: > 53 µM (inactive) | IC50 [6]: > 47.1 µM (inactive) | AC50 (Cytochrome P450 2D6): 28.2 µM (inconclusive)

O=C(O)CS(=O)(=O)C(c1ccccc1)c1ccccc1
AC50 (Cytochrome P450 2C19): inconclusive

COc1cccc(OCc2nc3ccccc3c(=O)n2N)c1
EC50 [3]: 10.1 µM (active) | EC50 [4]: > 150 µM (inconclusive)

CCOc1nc(NCc2ccco2)nc(Nc2ccccc2F)n1
EC50 (H4): 69.9 µM (active) | EC50 [1]: 6.54 µM (active) | EC50 [2]: 12.9 µM (active)

c1ccc(N2CCCC3(CCNCC3)C2)cc1
AC50 (Cytochrome P450 2C19; read-out: AC50): 15.8 µM (inconclusive) | AC50 (Cytochrome P450 3A4): 25.1 µM (inconclusive)

Cc1ccc(C)c(C(=N)c2ccccc2Cc2ccccc2)c1
AC50 (Cytochrome P450 2D6): 3.16 µM (inconclusive)

COCCCn1c(SCC(=O)Nc2ccccc2F)nnc1-c1ccoc1C
EC50 [5]: > 53 µM (inactive) | IC50 [6]: > 47.1 µM (inactive)

O=C(NNS(=O)(=O)c1ccc(Cl)cc1)NC1CCCCC1
AC50 (Cytochrome P450 2C19; read-out: AC50): 10 µM (inconclusive) | AC50 (Cytochrome P450 2C9): 17.8 µM (inconclusive)

CCOC(=O)c1ccc(NC(=O)c2cccc3c2C(=O)N(CC2CCCO2)C3)cc1 (stereo not given)
EC50 [5]: > 53 µM (inactive) | IC50 [6]: > 47.1 µM (inactive)

Nc1ccc2nc(SCc3ccc([N+](=O)[O-])cc3)sc2c1
EC50 [3]: > 38 µM (not active) | EC50 [4]: > 150 µM (inactive)

CCN1CCN(CC(=O)N2N=CCC2c2ccccc2)CC1 (stereo not given)
EC50 [5]: > 53 µM (inactive) | IC50 [6]: > 47.1 µM (inactive)

O=C(OCn1nnc2ccccc2c1=O)c1cccnc1
AC50 (Cytochrome P450 2C19; read-out: AC50): 25.1 µM (inconclusive) | AC50 (Cytochrome P450 2C9): 25.1 µM (inconclusive) | AC50 (Cytochrome P450 1A2): 17.8 µM (inconclusive)

CCC(=O)N1CCn2c1nc1ccccc12
AC50 (Cytochrome P450 2C19; read-out: AC50): 28.2 µM (inconclusive) | AC50 (Cytochrome P450 2C9): 1.41 µM (inconclusive)

O=C(CC1C(=O)NCCN1C(=O)Nc1ccccc1)Nc1ccc2c(c1)OCO2 (stereo not given)
EC50 [5]: > 53 µM (inactive) | IC50 [6]: > 47.1 µM (inactive)

CCOC(=O)c1ccccc1OCc1cc(/C=N/n2cnnc2)ccc1OC
EC50 [3]: > 38 µM (not active) | AC50 (Cytochrome P450 1A2): 1.26 µM (inconclusive) | EC50 [4]: > 150 µM (inactive)

FC(F)(F)c1nc2ccccc2nc1N/N=C\c1ccccc1
AC50 (Cytochrome P450 2C19; read-out: AC50): 39.8 µM (inconclusive) | AC50 (Cytochrome P450 2C9): 20 µM (inconclusive) | AC50 (Cytochrome P450 2D6): 14.1 µM (inconclusive)

O=C(N/N=C/c1ccc(N2CCOCC2)s1)c1ccccc1Cl
EC50 (H4): 48.6 µM (active) | EC50 [1]: 20.9 µM (active) | EC50 [2]: 12 µM (active)

CCCCc1[nH]nc2c1/C(=N/O)CC(c1ccccc1)C2 (stereo not given)
AC50 (Cytochrome P450 2D6): 14.1 µM (inconclusive)

COc1ccccc1CNc1ncnc2ccc(-c3cccc(NS(C)(=O)=O)c3)cc12
AC50 (Cytochrome P450 2C9): 0.794 µM (inconclusive) | AC50 (Cytochrome P450 2D6): 20 µM (inconclusive)

O=C(CNC(=O)OCc1ccccc1)NCC(=O)N1CCCC1C(=O)OCc1ccccc1 (stereo not drawn) (Cbz-Gly-Gly-[ξP]-OBn)
AC50 (Cytochrome P450 2C19; read-out: AC50): 0.0355 µM (inconclusive) | AC50 (Cytochrome P450 3A4): 17.8 µM (inconclusive)
